Measured values taken from PubChem BioAssay (NCI).
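48-hour exposure; five concentrations; linearly interpolated endpoints. At the GI50, growth is halved. TGI: total growth inhibition.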

Columns and labels:
Assay in all cases: growth of human tumour cells (NCI), 48 h
HOP-62 NSCLC = tested on: HOP-62 NSCLC
SK-MEL-2 melanoma = tested on: SK-MEL-2 melanoma
TK-10 renal = tested on: TK-10 renal
SNB-19 CNS = tested on: SNB-19 CNS
NCI/ADR-RES ovarian = tested on: NCI/ADR-RES ovarian
MDA-MB-231 breast = tested on: MDA-MB-231 breast
OVCAR-3 ovarian = tested on: OVCAR-3 ovarian
MOLT-4 leukemia = tested on: MOLT-4 leukemia
UACC-62 melanoma = tested on: UACC-62 melanoma
T-47D breast = tested on: T-47D breast
MALME-3M melanoma = tested on: MALME-3M melanoma
SNB-75 CNS = tested on: SNB-75 CNS
MCF7 breast = tested on: MCF7 breast
DU-145 prostate = tested on: DU-145 prostate
A498 renal = tested on: A498 renal
SF-295 CNS = tested on: SF-295 CNS
OVCAR-8 ovarian = tested on: OVCAR-8 ovarian
SW-620 colon = tested on: SW-620 colon
RXF 393 renal = tested on: RXF 393 renal
PC-3 prostate = tested on: PC-3 prostate
RPMI-8226 leukemia = tested on: RPMI-8226 leukemia
NCI-H23 lung = tested on: NCI-H23 lung
HS 578T breast = tested on: HS 578T breast
UO-31 renal = tested on: UO-31 renal
MDA-MB-435 = tested on: MDA-MB-435
SK-MEL-5 melanoma = tested on: SK-MEL-5 melanoma
MDA-MB-468 breast = tested on: MDA-MB-468 breast
A549 NSCLC = tested on: A549 NSCLC
OVCAR-4 ovarian = tested on: OVCAR-4 ovarian
SK-OV-3 ovarian = tested on: SK-OV-3 ovarian
UACC-257 melanoma = tested on: UACC-257 melanoma
786-0 renal = tested on: 786-0 renal
SR leukemia = tested on: SR leukemia
HOP-92 NSCLC = tested on: HOP-92 NSCLC
CCRF-CEM leukemia = tested on: CCRF-CEM leukemia
ACHN renal = tested on: ACHN renal
HCT-116 colon = tested on: HCT-116 colon
HL-60(TB) leukemia = tested on: HL-60(TB) leukemia
K-562 leukemia = tested on: K-562 leukemia
IGROV1 ovarian = tested on: IGROV1 ovarian
BT-549 breast = tested on: BT-549 breast
COLO 205 colon = tested on: COLO 205 colon
SN12C renal = tested on: SN12C renal
SK-MEL-28 melanoma = tested on: SK-MEL-28 melanoma
NCI-H522 lung = tested on: NCI-H522 lung
HT29 colon = tested on: HT29 colon
EKVX NSCLC = tested on: EKVX NSCLC
SF-268 CNS = tested on: SF-268 CNS
LOX IMVI melanoma = tested on: LOX IMVI melanoma
OVCAR-5 ovarian = tested on: OVCAR-5 ovarian
NCI-H460 lung = tested on: NCI-H460 lung
KM12 colon = tested on: KM12 colon
SF-539 CNS = tested on: SF-539 CNS
U251 CNS = tested on: U251 CNS
HCC-2998 colon = tested on: HCC-2998 colon
NCI-H226 lung = tested on: NCI-H226 lung
HCT-15 colon = tested on: HCT-15 colon
M14 melanoma = tested on: M14 melanoma
CAKI-1 renal = tested on: CAKI-1 renal

How did the GI50 (HOP-62 NSCLC) turn out when `CCN(CC)CCOc1ccc(C(=C(C)c2ccccc2)c2ccc(OCCN(CC)CC)cc2)cc1` was run?
Its GI50 is 3.54 µM.

And the TGI (HOP-62 NSCLC)?
Its TGI is 7.31 µM.

And the GI50 (SK-MEL-2 melanoma)?
Its GI50 is 4.13 µM.

What about the TGI (SK-MEL-2 melanoma) of the same compound?
Its TGI is 7.85 µM.

What about the GI50 (TK-10 renal) of the same compound?
The GI50 was 3.17 µM.

What about the TGI (TK-10 renal) of the same compound?
The TGI was 6.66 µM.

What about the GI50 (SNB-19 CNS) of the same compound?
Its GI50 is 4.29 µM.

What about the TGI (SNB-19 CNS) of the same compound?
Its TGI is 8.7 µM.

What about the GI50 (NCI/ADR-RES ovarian) of the same compound?
The GI50 was 4.71 µM.

And the TGI (NCI/ADR-RES ovarian)?
The TGI was 13.9 µM.

What about the GI50 (MDA-MB-231 breast) of the same compound?
The GI50 was 3.04 µM.

And the TGI (MDA-MB-231 breast)?
The TGI was 6.14 µM.

What about the GI50 (OVCAR-3 ovarian) of the same compound?
Its GI50 is 2.96 µM.

And the TGI (OVCAR-3 ovarian)?
Its TGI is 7.11 µM.

And the GI50 (MOLT-4 leukemia)?
Its GI50 is 4.71 µM.

What about the TGI (MOLT-4 leukemia) of the same compound?
Its TGI is 14.8 µM.

What about the GI50 (UACC-62 melanoma) of the same compound?
The GI50 was 3.89 µM.

What about the TGI (UACC-62 melanoma) of the same compound?
The TGI was 7.12 µM.

What about the GI50 (T-47D breast) of the same compound?
Its GI50 is 2.66 µM.

And the TGI (T-47D breast)?
The TGI was 5.98 µM.

What about the GI50 (MALME-3M melanoma) of the same compound?
The GI50 was 3.61 µM.

And the TGI (MALME-3M melanoma)?
The TGI was 6.73 µM.

What about the GI50 (SNB-75 CNS) of the same compound?
The GI50 was 3.07 µM.

And the TGI (SNB-75 CNS)?
Its TGI is 6.98 µM.

And the GI50 (MCF7 breast)?
Its GI50 is 0.75 µM.

What about the TGI (MCF7 breast) of the same compound?
Its TGI is 4.18 µM.

What about the GI50 (DU-145 prostate) of the same compound?
The GI50 was 6 µM.

What about the TGI (DU-145 prostate) of the same compound?
The TGI was greater than 23 µM.

And the GI50 (A498 renal)?
The GI50 was 2.73 µM.

What about the TGI (A498 renal) of the same compound?
Its TGI is 5.62 µM.

What about the GI50 (SF-295 CNS) of the same compound?
Its GI50 is 3.58 µM.

What about the TGI (SF-295 CNS) of the same compound?
The TGI was 7.26 µM.

What about the GI50 (OVCAR-8 ovarian) of the same compound?
Its GI50 is 6.12 µM.

What about the TGI (OVCAR-8 ovarian) of the same compound?
Its TGI is 18.1 µM.

And the GI50 (SW-620 colon)?
The GI50 was 3.1 µM.

What about the TGI (SW-620 colon) of the same compound?
Its TGI is 6.31 µM.

And the GI50 (RXF 393 renal)?
The GI50 was 2.47 µM.

And the TGI (RXF 393 renal)?
The TGI was 6.46 µM.

What about the GI50 (PC-3 prostate) of the same compound?
Its GI50 is 3.59 µM.

And the TGI (PC-3 prostate)?
Its TGI is 8.25 µM.

And the GI50 (RPMI-8226 leukemia)?
The GI50 was 3.51 µM.

What about the TGI (RPMI-8226 leukemia) of the same compound?
The TGI was 8.8 µM.

What about the GI50 (NCI-H23 lung) of the same compound?
Its GI50 is 4.27 µM.

What about the TGI (NCI-H23 lung) of the same compound?
The TGI was 10.7 µM.

What about the GI50 (HS 578T breast) of the same compound?
The GI50 was 4.08 µM.

And the TGI (HS 578T breast)?
The TGI was 10.2 µM.

What about the GI50 (UO-31 renal) of the same compound?
Its GI50 is 2.99 µM.

And the TGI (UO-31 renal)?
The TGI was 5.97 µM.

And the GI50 (MDA-MB-435)?
The GI50 was 3.02 µM.

And the TGI (MDA-MB-435)?
The TGI was 6.48 µM.

And the GI50 (SK-MEL-5 melanoma)?
Its GI50 is 3.57 µM.

And the TGI (SK-MEL-5 melanoma)?
The TGI was 6.78 µM.

What about the GI50 (MDA-MB-468 breast) of the same compound?
Its GI50 is 1.84 µM.

What about the TGI (MDA-MB-468 breast) of the same compound?
The TGI was 5.04 µM.

And the GI50 (A549 NSCLC)?
The GI50 was 4.54 µM.

What about the TGI (A549 NSCLC) of the same compound?
The TGI was 13.3 µM.

What about the GI50 (OVCAR-4 ovarian) of the same compound?
The GI50 was 4.56 µM.

And the TGI (OVCAR-4 ovarian)?
The TGI was 11.7 µM.

And the GI50 (SK-OV-3 ovarian)?
Its GI50 is 3.69 µM.

And the TGI (SK-OV-3 ovarian)?
Its TGI is 7.16 µM.

And the GI50 (UACC-257 melanoma)?
The GI50 was 4.25 µM.

What about the TGI (UACC-257 melanoma) of the same compound?
The TGI was 8.08 µM.

And the GI50 (786-0 renal)?
Its GI50 is 2.98 µM.

What about the TGI (786-0 renal) of the same compound?
Its TGI is 6.77 µM.

And the GI50 (SR leukemia)?
Its GI50 is 2.44 µM.

And the TGI (SR leukemia)?
Its TGI is greater than 23 µM.

And the GI50 (HOP-92 NSCLC)?
Its GI50 is 1.76 µM.

And the TGI (HOP-92 NSCLC)?
The TGI was 6.5 µM.

And the GI50 (CCRF-CEM leukemia)?
Its GI50 is 2.37 µM.

What about the TGI (CCRF-CEM leukemia) of the same compound?
The TGI was 6.61 µM.

And the GI50 (ACHN renal)?
Its GI50 is 3.63 µM.

What about the TGI (ACHN renal) of the same compound?
The TGI was 6.97 µM.

And the GI50 (HCT-116 colon)?
Its GI50 is 2.39 µM.

What about the TGI (HCT-116 colon) of the same compound?
Its TGI is 7.09 µM.

What about the GI50 (HL-60(TB) leukemia) of the same compound?
The GI50 was 4.36 µM.

What about the TGI (HL-60(TB) leukemia) of the same compound?
The TGI was 22.1 µM.

What about the GI50 (K-562 leukemia) of the same compound?
Its GI50 is 0.968 µM.

What about the TGI (K-562 leukemia) of the same compound?
Its TGI is greater than 23 µM.

What about the GI50 (IGROV1 ovarian) of the same compound?
The GI50 was 4.27 µM.

And the TGI (IGROV1 ovarian)?
Its TGI is 9.79 µM.

And the GI50 (BT-549 breast)?
Its GI50 is 4.46 µM.

What about the TGI (BT-549 breast) of the same compound?
The TGI was 8.15 µM.

And the GI50 (COLO 205 colon)?
Its GI50 is 3.36 µM.

What about the TGI (COLO 205 colon) of the same compound?
The TGI was 6.89 µM.

And the GI50 (SN12C renal)?
Its GI50 is 3.52 µM.

What about the TGI (SN12C renal) of the same compound?
The TGI was 7.22 µM.

And the GI50 (SK-MEL-28 melanoma)?
The GI50 was 3.52 µM.

What about the TGI (SK-MEL-28 melanoma) of the same compound?
Its TGI is 6.65 µM.

What about the GI50 (NCI-H522 lung) of the same compound?
Its GI50 is 3.63 µM.

What about the TGI (NCI-H522 lung) of the same compound?
The TGI was 7.85 µM.

And the GI50 (HT29 colon)?
Its GI50 is 1.17 µM.

And the TGI (HT29 colon)?
The TGI was 5.6 µM.

And the GI50 (EKVX NSCLC)?
Its GI50 is 5.71 µM.

What about the TGI (EKVX NSCLC) of the same compound?
Its TGI is greater than 23 µM.

What about the GI50 (SF-268 CNS) of the same compound?
The GI50 was 3.47 µM.

What about the TGI (SF-268 CNS) of the same compound?
The TGI was 8.81 µM.

And the GI50 (LOX IMVI melanoma)?
Its GI50 is 3.14 µM.

And the TGI (LOX IMVI melanoma)?
Its TGI is 6.25 µM.

And the GI50 (OVCAR-5 ovarian)?
The GI50 was 3.45 µM.

What about the TGI (OVCAR-5 ovarian) of the same compound?
The TGI was 7.76 µM.

What about the GI50 (NCI-H460 lung) of the same compound?
The GI50 was 3.57 µM.

And the TGI (NCI-H460 lung)?
The TGI was 6.96 µM.

And the GI50 (KM12 colon)?
Its GI50 is 3.47 µM.

What about the TGI (KM12 colon) of the same compound?
Its TGI is 7.22 µM.

And the GI50 (SF-539 CNS)?
The GI50 was 3.35 µM.

And the TGI (SF-539 CNS)?
Its TGI is 6.4 µM.

What about the GI50 (U251 CNS) of the same compound?
The GI50 was 3.69 µM.

What about the TGI (U251 CNS) of the same compound?
Its TGI is 7.44 µM.

What about the GI50 (HCC-2998 colon) of the same compound?
Its GI50 is 2.91 µM.

And the TGI (HCC-2998 colon)?
Its TGI is 6.14 µM.

What about the GI50 (NCI-H226 lung) of the same compound?
Its GI50 is 5.92 µM.

What about the TGI (NCI-H226 lung) of the same compound?
The TGI was greater than 23 µM.

What about the GI50 (HCT-15 colon) of the same compound?
Its GI50 is 2.6 µM.

What about the TGI (HCT-15 colon) of the same compound?
Its TGI is 6.85 µM.

And the GI50 (M14 melanoma)?
The GI50 was 3.34 µM.

What about the TGI (M14 melanoma) of the same compound?
The TGI was 7.71 µM.

What about the GI50 (CAKI-1 renal) of the same compound?
The GI50 was 3.42 µM.

What about the TGI (CAKI-1 renal) of the same compound?
Its TGI is 7.07 µM.
